# Test results reported in patent publication US12012410B2, “Substituted pyrazolo[1,5-a]pyrazines for spinal muscular atrophy” (REBORNA BIOSCIENCES, INC., priority 2018, dated 2024).
# Counter-ions that a name gives are not always drawn.
# Tested on: FL-SMN mRNA (SMN transcript containing exons 7 and 8)
# Assay: Live-cell assay to measure changes in FL-SMN mRNA levels (qPCR) after exposure to the compounds
# Assay type: cell-based, human
# Conditions: fibroblasts derived from patients SMA (GM03813); 24 hours incubation
# Outline: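 SMA patient fibroblasts (GM03813) in DMEM/10% FBS were treated with compound (0.1% DMSO final) for 24 h. FL-SMN and Δ7 mRNA were measured by RT-qPCR against oligo DNA standard curves and normalised to GAPDH. Values are % of the DMSO control, binned by asterisk from ≥100% to ≥180%.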
smiles,measurement,value
"Cc1cn2cc(-c3ccc4nc(C5CCN(C)CC5)[nH]c(=O)c4c3C)ccc2n1 [Example 60, 5-methyl-6-(2-methylimidazo[1,2-a]pyridin-6-yl)-2-(1-methylpiperidin-4-yl)quinazolin-4(3H)-one]","Percentage of increase (FL-SMN mRNA standardized against GAPDH, DMSO control set as 100%)",** (equal to or higher than 120% but lower than 150%)
"Cc1nc2c(C)cc(-c3ccc4nc(C5CCN(C)CC5)[nH]c(=O)c4c3)cc2o1 [Example 71, 6-(2,4-dimethyl-1,3-benzoxazol-6-yl)-2-(1-methylpiperidin-4-yl)quinazolin-4(3H)-one]","Percentage of increase (FL-SMN mRNA standardized against GAPDH, DMSO control set as 100%)",* (equal to or higher than 100% but lower than 120%)
"Cc1cn2nc(-c3nc4ccc(N5CCNCC5)cc4c(=O)[nH]3)cc2c(C)n1 [Example 16, 2-(4,6-Dimethylpyrazolo[1,5-α]pyrazin-2-yl)-6-(piperazin-1-yl)quinazolin-4(3H)-one dihydrochloride]","Percentage of increase (FL-SMN mRNA standardized against GAPDH, DMSO control set as 100%)",**** (equal to or higher than 180%)
"Cc1cn2nc(-c3nc4c(C)cc(N5CCN(C)CC5)cc4c(=O)[nH]3)cc2c(C)n1 [Example 21, 2-(4,6-Dimethylpyrazolo[1,5-α]pyrazin-2-yl)-8-methyl-6-(4-methylpiperazin-1-yl)quinazolin-4(3H)-one]","Percentage of increase (FL-SMN mRNA standardized against GAPDH, DMSO control set as 100%)",**** (equal to or higher than 180%)
"Cc1cn2cc(-c3ccc4nc(C5CCN(C)CC5)[nH]c(=O)c4c3)ccc2n1 [Example 9, 6-(2-Methylimidazo[1,2-α]pyridin-6-yl)-2-(1-methylpiperidin-4-yl)quinazolin-4(3H)-one]","Percentage of increase (FL-SMN mRNA standardized against GAPDH, DMSO control set as 100%)",**** (equal to or higher than 180%)
"CCc1cn2cc(-c3ccc4nc(C5CCN(C)CC5)[nH]c(=O)c4c3)ccc2n1 [Example 68, 6-(2-ethylimidazo[1,2-a]pyridin-6-yl)-2-(1-methylpiperidin-4-yl)quinazolin-4(3H)-one]","Percentage of increase (FL-SMN mRNA standardized against GAPDH, DMSO control set as 100%)",* (equal to or higher than 100% but lower than 120%)
"Cc1nc2ccc(-c3cc(F)c4nc(C5CCN(C6CC6)CC5)[nH]c(=O)c4c3)cc2o1 [Example 31, 2-(1-cyclopropylpiperidin-4-yl)-8-fluoro-6-(2-methyl-1,3-benzoxazol-6-yl)quinazolin-4(3H)-one]","Percentage of increase (FL-SMN mRNA standardized against GAPDH, DMSO control set as 100%)",**** (equal to or higher than 180%)
"Cc1cn2cc(-c3ccc4nc(C5(F)CCN(C)CC5)[nH]c(=O)c4c3)cc(F)c2n1 [Example 86, 2-(4-fluoro-1-methylpiperidin-4-yl)-6-(8-fluoro-2-methylimidazo[1,2-a]pyridin-6-yl)quinazolin-4(3H)-one]","Percentage of increase (FL-SMN mRNA standardized against GAPDH, DMSO control set as 100%)",*** (equal to or higher than 150% but lower than 180%)
"COc1ccc(-c2cc(F)c3nc(C4CCN(C5CC5)CC4)[nH]c(=O)c3c2)cc1F [Example 35, 2-(1-cyclopropylpiperidin-4-yl)-8-fluoro-6-(3-fluoro-4-methoxyphenyl) quinazolin-4(3H)-one]","Percentage of increase (FL-SMN mRNA standardized against GAPDH, DMSO control set as 100%)",**** (equal to or higher than 180%)
"CN1CCC(c2nc3ccc(-c4ccc5nccn5c4)cc3c(=O)[nH]2)CC1 [Example 65, 6-(imidazo[1,2-a]pyridin-6-yl)-2-(1-methylpiperidin-4-yl)quinazolin-4(3H)-one]","Percentage of increase (FL-SMN mRNA standardized against GAPDH, DMSO control set as 100%)",** (equal to or higher than 120% but lower than 150%)
"Cc1nc2c(F)cc(-c3ccc4nc(C5CCN(C)CC5)[nH]c(=O)c4c3)cc2o1 [Example 18, 6-(4-Fluoro-2-methyl-1,3-benzoxazol-6-yl)-2-(1-methylpiperidin-4-yl)quinazolin-4(3H)-one]","Percentage of increase (FL-SMN mRNA standardized against GAPDH, DMSO control set as 100%)",**** (equal to or higher than 180%)
"Cc1nc2c(F)cc(-c3ccc4nc(C5CCN(C6CC6)CC5)[nH]c(=O)c4n3)cc2o1 [Example 106, 2-(1-cyclopropylpiperidin-4-yl)-6-(4-fluoro-2-methyl-1,3-benzoxazol-6-yl)pyrido[3,2-d]pyrimidin-4(3H)-one]","Percentage of increase (FL-SMN mRNA standardized against GAPDH, DMSO control set as 100%)",** (equal to or higher than 120% but lower than 150%)
"Cc1cn2nc(-c3nc4ccc(N5CCN6CCC[C@@H]6C5)cc4c(=O)[nH]3)cc2c(C)n1 [Example 126, (R)-2-(4,6-dimethylpyrazolo[1,5-a]pyrazin-2-yl)-6-(hexahydropyrrolo[1,2-a]pyrazin-2(1H)-yl)quinazolin-4(3H)-one]","Percentage of increase (FL-SMN mRNA standardized against GAPDH, DMSO control set as 100%)",**** (equal to or higher than 180%)
"Cc1cn2cc(-c3ccc4nc(C5CCN(C6CC6)CC5)[nH]c(=O)c4c3)ccc2n1 [Example 74, 2-(1-cyclopropylpiperidin-4-yl)-6-(2-methylimidazo[1,2-a]pyridin-6-yl)quinazolin-4(3H)-one]","Percentage of increase (FL-SMN mRNA standardized against GAPDH, DMSO control set as 100%)",** (equal to or higher than 120% but lower than 150%)
"COc1ccnc(-c2nc3ccc(C4CCN(C)CC4)cc3c(=O)[nH]2)c1 [Example 48, 2-(4-Methoxypyridin-2-yl)-6-(1-methylpiperidin-4-yl)quinazolin-4(3H)-one]","Percentage of increase (FL-SMN mRNA standardized against GAPDH, DMSO control set as 100%)",* (equal to or higher than 100% but lower than 120%)
"Cc1cn2cc(-c3cc(F)c4nc(C5(F)CCN(C(C)C)CC5)[nH]c(=O)c4c3)ccc2n1 [Example 96, 8-fluoro-2-(4-fluoro-1-isopropylpiperidin-4-yl)-6-(2-methylimidazo[1,2-a]pyridin-6-yl)quinazolin-4(3H)-one]","Percentage of increase (FL-SMN mRNA standardized against GAPDH, DMSO control set as 100%)",*** (equal to or higher than 150% but lower than 180%)
"Cc1cn2cc(-c3nc4cc(F)c(N5CCN(C)CC5)cc4c(=O)[nH]3)cc(F)c2n1 [Example 56, 7-fluoro-2-(8-fluoro-2-methylimidazo[1,2-a]pyridin-6-yl)-6-(4-methylpiperazin-1-yl)quinazolin-4(3H)-one]","Percentage of increase (FL-SMN mRNA standardized against GAPDH, DMSO control set as 100%)",** (equal to or higher than 120% but lower than 150%)
"Cc1nc2ccc(-c3cc(F)c4nc(C5CCN(C)CC5)[nH]c(=O)c4c3)cc2o1 [Example 30, 8-fluoro-6-(2-methyl-1,3-benzoxazol-6-yl)-2-(1-methylpiperidin-4-yl)quinazolin-4(3H)-one]","Percentage of increase (FL-SMN mRNA standardized against GAPDH, DMSO control set as 100%)",**** (equal to or higher than 180%)
"Cc1cn2cc(-c3ccc4nc(C5CCN(C)CC5)[nH]c(=O)c4c3)cc2c(C)n1 [Example 20, 6-(1,3-Dimethylpyrrolo[1,2-α]pyrazin-7-yl)-2-(1-methylpiperidin-4-yl)quinazolin-4(3H)-one]","Percentage of increase (FL-SMN mRNA standardized against GAPDH, DMSO control set as 100%)",**** (equal to or higher than 180%)
"CCN1CCC(F)(c2nc3c(C)cc(-c4cc(F)c5nc(C)cn5c4)nc3c(=O)[nH]2)CC1 [Example 100, 2-(1-ethyl-4-fluoropiperidin-4-yl)-6-(8-fluoro-2-methylimidazo[1,2-a]pyridin-6-yl)-8-methylpyrido[3,2-d]pyrimidin-4(3H)-one]","Percentage of increase (FL-SMN mRNA standardized against GAPDH, DMSO control set as 100%)",**** (equal to or higher than 180%)
"COc1ccc(-c2cc(F)c3nc(C4CCN(C)CC4)[nH]c(=O)c3c2)cc1F [Example 87, 8-fluoro-6-(3-fluoro-4-methoxyphenyl)-2-(1-methylpiperidin-4-yl)quinazolin-4(3H7)-one]","Percentage of increase (FL-SMN mRNA standardized against GAPDH, DMSO control set as 100%)",**** (equal to or higher than 180%)
"CCN1CCC(F)(c2nc3c(C)cc(-c4cc(F)c5nc(C)cn5c4)cc3c(=O)[nH]2)CC1 [Example 90, 2-(1-ethyl-4-fluoropiperidin-4-yl)-6-(8-fluoro-2-methylimidazo[1,2-a]pyridin-6-yl)-8-methylquinazolin-4(3H4)-one]","Percentage of increase (FL-SMN mRNA standardized against GAPDH, DMSO control set as 100%)",**** (equal to or higher than 180%)
"CC[C@H]1CN(C)CCN1c1ccc2nc(-c3cc4c(C)nc(C)cn4n3)[nH]c(=O)c2c1 [Example 129, (S)-2-(4,6-dimethylpyrazolo[1,5-a]pyrazin-2-yl)-6-(2-ethyl-4-methylpiperazin-1-yl)quinazolin-4(3H)-one]","Percentage of increase (FL-SMN mRNA standardized against GAPDH, DMSO control set as 100%)",*** (equal to or higher than 150% but lower than 180%)
"Cc1cn2nc(-c3nc4ccc(N5CCN(C6CC6)CC5)cc4c(=O)[nH]3)cc2cn1 [Example 116, 6-(4-cyclopropylpiperazin-1-yl)-2-(6-methylpyrazolo[1,5-a]pyrazin-2-yl)quinazolin-4(3H)-one]","Percentage of increase (FL-SMN mRNA standardized against GAPDH, DMSO control set as 100%)",**** (equal to or higher than 180%)
"Cc1cn2cc(-c3nc4ccc(N5CCN(C)CC5)cc4c(=O)[nH]3)ccc2n1 [Example 58, 2-(2-methylimidazo[1,2-a]pyridin-6-yl)-6-(4-methylpiperazin-1-yl)quinazolin-4(3H)-one]","Percentage of increase (FL-SMN mRNA standardized against GAPDH, DMSO control set as 100%)",** (equal to or higher than 120% but lower than 150%)
"Cc1nc2c(F)cc(-c3cc4c(=O)[nH]c(C5(F)CCNCC5)nc4cn3)cc2o1 [Example 111, 6-(4-fluoro-2-methy-1,3-benzoxazol-6-yl)-2-(4-fluoropiperidin-4-yl)pyrido[3,4-d]pyrimidin-4(3H)-one]","Percentage of increase (FL-SMN mRNA standardized against GAPDH, DMSO control set as 100%)",**** (equal to or higher than 180%)
"Cc1cn2nc(-c3nc4ccc(N5CCN(C)CC5)cc4c(=O)[nH]3)cc2c(C)n1 [Example 6, 2-(4,6-Dimethylpyrazolo[1,5-α]pyrazin-2-yl)-6-(4-methylpiperazin-1-yl)quinazolin-4(3H)-one dihydrochloride]","Percentage of increase (FL-SMN mRNA standardized against GAPDH, DMSO control set as 100%)",**** (equal to or higher than 180%)
"Cc1cn2cc(-c3nc4ccc(N5CCN(C)CC5)cc4c(=O)[nH]3)nc2c(C)n1 [Example 50, 2-(6,8-dimethylimidazo[1,2-a]pyrazin-2-yl)-6-(4-methylpiperazin-1-yl)quinazolin-4(3H)-one]","Percentage of increase (FL-SMN mRNA standardized against GAPDH, DMSO control set as 100%)",** (equal to or higher than 120% but lower than 150%)
"CCN1CCC(c2nc3ccc(-c4cc(F)c5nc(C)oc5c4)cc3c(=O)[nH]2)CC1 [Example 25, 2-(1-ethylpiperidin-4-yl)-6-(4-fluoro-2-methylu 1,3-benzoxazole-6-yl) kinazoline-4 (3H)-one]","Percentage of increase (FL-SMN mRNA standardized against GAPDH, DMSO control set as 100%)",**** (equal to or higher than 180%)
